In patent publication US6258790A, “Antisense modulation of integrin α4 expression” (Isis Pharmaceuticals, Inc., priority 1999, dated 2001):
Where “and” joins values, the source holds several entries; their conditions need not be identical. Identical values can stand only once.

Tests used:
Type in all cases: cell-based, mouse
[1] = test system: murine integrin α4 mRNA; experiment: Antisense inhibition of murine integrin α4 mRNA expression in P388D (IL-1) macrophage cells (RNA gel, PCR-labeled probe); settings: 100 nM; for % Control (murine integrin α4 mRNA) / % Inhib (murine integrin α4 mRNA): Table 8, P388D (IL-1) cells, 3 ug/ml lipofectin; for activity in the mRNA screen: Table 8 assay; for % Control / % Inhib.: Table 9, averages of duplicate samples
Procedure: Oligonucleotides were initially screened in murine P388D (IL-1) macrophage cells (American Type Culture Collection, Manassas Va.) for 4 hours at an oligonucleotide concentration of 100 nM in 3 ug/ml lipofectin.

[2] = test system: murine integrin α4 mRNA; experiment: as above; settings: Table 9, averages of duplicate samples
[3] = test system: murine integrin α4; experiment: Antisense inhibition of murine integrin α4 protein expression in IC-21 macrophage cells (flow cytometry, CD49d-PE); settings: for % Control (integrin α4 protein) / % Inhib (integrin α4 protein): Table 11
Procedure: Murine IC-21 macrophage cells (American Type Culture Collection, Manassas, Va.) were used for further study. Additional oligonucleotides were designed to target murine integrin α4. These are shown in Table 10; all 2' MOE nucleotides are shown in bold and remaining positions are 2' deoxy. All 2'-MOE cytosines in these compounds are 5' methylcytosines. IC-21 cells were seeded at 5×10^4 cell/well plates two days before assay. […] Wells were triplicates.
Cells (triplicates) were seeded at 2.5×10^4 cells/well in 24-well plates the day before treatment. Oligonucleotide concentrations were 0.2, 1, 5, 25 and 50 nM in 3 ug/ml LIPOFECTIN. Cells were harvested with 2 mM EDTA for 4 minutes, then 1 ml of 2% BSA, 0.2% azide was added per contents of each well.
IC-21 cells were treated with 0.3, 1, 3, 10 and 30 nM oligonucleotide with 3 ug/ml LIPOFECTIN for 4 hours. Cells were incubated for 24 hours, harvested with trypsin, stained with 2 ug/ml CD49d-PE and rat IgG2B as in previous examples.
These compounds were tested for ability to inhibit integrin α4 protein expression.

[4] = test system: murine integrin α4 RNA; experiment: Dose response effect on integrin α4 RNA levels in IC-21 cells; settings: for Percent inhib. (integrin α4 RNA) / Percent of control (integrin α4 RNA): Table 14, duplicate
Procedure: another dose response experiment was done to determine the IC50 of ISIS 16433 for inhibition of integrin α4 RNA. IC-21 cells were tested in duplicate with ISIS 16433 at 6.25, 12.5, 25 or 50 nM with 3 ug/ml LIPOFECTIN.
RNA was purified with Qiagen Qiashredder/RNEASY™ Kit according to manufacturer's directions. Probes were random primed using a prime-a-Gene Kit (Promega, Madison, Wis.).

[5] = IC-21 cells, 25 nM, triplicates

15608 (antisense CCGCAGCCATGCGCTCTTGG; phosphorothioate DNA, further chemistry not given here) [compound 15608]
% Control (murine integrin α4 mRNA) [1]: 16%
% Inhib (murine integrin α4 mRNA) [1]: 84%
activity in the mRNA screen [1]: most active
% Control [1]: 39%
% Inhib. [1]: 61%
% Control ([2]; 12.5 nM): 59%
% Inhib. ([2]; 12.5 nM): 41%
% Control ([2]; 25 nM): 29%
% Inhib. ([2]; 25 nM): 71%
% Control ([2]; 50 nM): 23%
% Inhib. ([2]; 50 nM): 77%
% Control (integrin α4 protein) [3, 5]: 63%
% Inhib (integrin α4 protein) [3, 5]: 37%

15609 (antisense CACCTCGCTTCCGCAGCCAT; phosphorothioate DNA, further chemistry not given here) [compound 15609]
% Control (murine integrin α4 mRNA) [1]: 07%
% Inhib (murine integrin α4 mRNA) [1]: 93%
activity in the mRNA screen [1]: most active
% Control [1]: 57%
% Inhib. [1]: 43%
% Control ([2]; 12.5 nM): 54%
% Inhib. ([2]; 12.5 nM): 46%
% Control ([2]; 25 nM): 24%
% Inhib. ([2]; 25 nM): 76%
% Control ([2]; 50 nM): 28%
% Inhib. ([2]; 50 nM): 72%
% Control (integrin α4 protein) [3, 5]: 57%
% Inhib (integrin α4 protein) [3, 5]: 43%

16433 (CCGCAGCCATGCGCTCTTGG; phosphorothioate, 2'-MOE/deoxy, further chemistry not given here) [compound 16433]
IC50 ([3]; IC-21 cells): ~1 nM
inhibition of protein levels ([3]; IC-21 cells, 30 nM): inhibit protein levels to below basal levels
% Control (integrin α4 protein) [3, 5]: 23%
% Inhib (integrin α4 protein) ([3]; IC-21 cells, 25 nM, triplicates, 0.025 µM): 77% and > 50%
% Inhib. ([3]; Table 12, 0.2 nM, triplicates): 15%
% of control ([3]; Table 12, 0.2 nM, triplicates): 85%
% Inhib. ([3]; Table 12, 1 nM, triplicates): 38%
% of control ([3]; Table 12, 1 nM, triplicates): 62%
% Inhib. ([3]; Table 12, 5 nM, triplicates): 63%
% of control ([3]; Table 12, 5 nM, triplicates): 37%
% Inhib. ([3]; Table 12, 25 nM, triplicates): 80%
% of control ([3]; Table 12, 25 nM, triplicates): 20%
% Inhib. ([3]; Table 12, 50 nM, triplicates): 70%
% of control ([3]; Table 12, 50 nM, triplicates): 30%
% Inhib. ([3]; Table 13, 0.3 nM, 24 hours): 11%
% of control ([3]; Table 13, 0.3 nM, 24 hours): 89%
% Inhib. ([3]; Table 13, 1 nM, 24 hours): 32%
% of control ([3]; Table 13, 1 nM, 24 hours): 68%
% Inhib. ([3]; Table 13, 3 nM, 24 hours): 75%
% of control ([3]; Table 13, 3 nM, 24 hours): 25%
% Inhib. ([3]; Table 13, 10 nM, 24 hours): 97%
% of control ([3]; Table 13, 30 nM, 24 hours): -14%
% Control ([3]; Table 16, 0.3 nM): 146%
% Control ([3]; Table 16, 1 nM): 94%
% Control ([3]; Table 16, 3 nM): 64%
% Inhib. ([3]; Table 16, 3 nM): 36%
% Control ([3]; Table 16, 10 nM): 02%
% Inhib. ([3]; Table 16, 10 nM): 98%
IC50 ([4]; IC-21 cells, read-out: IC50 for integrin α4 RNA reduction): ~10 nM
Percent inhib. (integrin α4 RNA) ([4]; 6.25 nM): 41%
Percent of control (integrin α4 RNA) ([4]; 6.25 nM): 59%
Percent inhib. (integrin α4 RNA) ([4]; 12.5 nM): 44%
Percent of control (integrin α4 RNA) ([4]; 12.5 nM): 46%
Percent inhib. (integrin α4 RNA) ([4]; 25 nM): 72%
Percent of control (integrin α4 RNA) ([4]; 25 nM): 28%
Percent inhib. (integrin α4 RNA) ([4]; 50 nM): 57%
Percent of control (integrin α4 RNA) ([4]; 50 nM): 43%

16478 (GCCGACACCCGTTCGTTCGG; phosphorothioate DNA, further chemistry not given here) [compound 16478]
% Control (integrin α4 protein) [3, 5]: 92%
% of control ([3]; Table 12, 5 nM, triplicates): 95%
% Inhib. ([3]; Table 12, 25 nM, triplicates): 13%
% of control ([3]; Table 12, 25 nM, triplicates): 87%
% Inhib. ([3]; Table 12, 50 nM, triplicates): 16%
% of control ([3]; Table 12, 50 nM, triplicates): 84%
% of control ([3]; Table 13, 0.3 nM, 24 hours): 137%
% of control ([3]; Table 13, 1 nM, 24 hours): 131%
% of control ([3]; Table 13, 3 nM, 24 hours): 127%
% of control ([3]; Table 13, 10 nM, 24 hours): 130%
% of control ([3]; Table 13, 30 nM, 24 hours): 108%
Percent inhib. (integrin α4 RNA) ([4]; 6.25 nM): 25%
Percent of control (integrin α4 RNA) ([4]; 6.25 nM): 75%
Percent inhib. (integrin α4 RNA) ([4]; 12.5 nM): 40%
Percent of control (integrin α4 RNA) ([4]; 12.5 nM): 60%
Percent inhib. (integrin α4 RNA) ([4]; 25 nM): 76%
Percent of control (integrin α4 RNA) ([4]; 25 nM): 24%
Percent inhib. (integrin α4 RNA) ([4]; 50 nM): 74%
Percent of control (integrin α4 RNA) ([4]; 50 nM): 26%
